Experimental data taken from ChEMBL document CHEMBL1909046, “DrugMatrix in vitro pharmacology data”.

Legend:
[1] = biological target: Sigma non-opioid intracellular receptor 1 (Homo sapiens, UniProt Q99720); assay: DRUGMATRIX: Sigma1 radioligand binding (ligand: [3H] Haloperidol); format: cell membranes, Jurkat, Membrane; details: jurkat; Not Active = under 50% inhibition at 10 µM
[2] = DRUGMATRIX: Sigma2 radioligand binding (ligand: [3H] Ifenprodil); format: cell membranes, Rattus norvegicus, Wistar, Brain, Membrane; details: Not Active = under 50% inhibition at 10 µM
Substance-P receptor = Substance-P receptor (Homo sapiens, UniProt P25103); format: cell membranes, CHO, Membrane; details: cho; note: in other assays of this panel Not Active means under 50% inhibition at 10 µM
Sequence of Substance-P receptor (P25103 whole entry): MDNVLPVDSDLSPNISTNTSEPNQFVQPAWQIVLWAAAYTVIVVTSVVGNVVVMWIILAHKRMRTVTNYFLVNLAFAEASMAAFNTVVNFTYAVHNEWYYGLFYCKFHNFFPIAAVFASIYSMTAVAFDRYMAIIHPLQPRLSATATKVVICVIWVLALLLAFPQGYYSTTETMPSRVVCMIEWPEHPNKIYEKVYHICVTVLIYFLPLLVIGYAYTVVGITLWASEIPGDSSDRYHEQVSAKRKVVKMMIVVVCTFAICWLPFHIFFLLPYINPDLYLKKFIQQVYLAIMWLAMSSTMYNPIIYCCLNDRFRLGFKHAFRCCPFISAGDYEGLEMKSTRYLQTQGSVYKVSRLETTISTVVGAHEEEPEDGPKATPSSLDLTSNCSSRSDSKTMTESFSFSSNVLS

[3] = DRUGMATRIX: GABAA, Flunitrazepam, Central radioligand binding (ligand: [3H] Flunitrazepam); format: cell membranes, Rattus norvegicus, Wistar, Brain, Membrane; details: Not Active = under 50% inhibition at 10 µM
[4] = DRUGMATRIX: Glutamate, Kainate radioligand binding (ligand: [3H] Kainic acid); format: cell membranes, Rattus norvegicus, Wistar, Brain, Membrane; details: Not Active = under 50% inhibition at 10 µM
Leukotriene C4 synthase = biological target: T1, Leukotriene C4 synthase (Cavia porcellus, UniProt A6XA80); assay: biochemical; format: tissue-based, Lung;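 note: enzyme inhibition assay of leukotriene C4 synthase, using LTA4 as the substrate; in other assays of this panel Not Active means under 50% inhibition at 10 µM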
T1 sequence (A6XA80 whole entry): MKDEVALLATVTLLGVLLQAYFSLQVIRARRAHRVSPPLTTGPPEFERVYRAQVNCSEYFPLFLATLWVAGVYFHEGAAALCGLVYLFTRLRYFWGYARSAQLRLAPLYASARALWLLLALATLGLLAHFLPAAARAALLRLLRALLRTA

[5] = biological target: T2, Polyunsaturated fatty acid lipoxygenase ALOX15 (Oryctolagus cuniculus, UniProt P12530); assay: biochemical; format: tissue-based, Reticulocytes; details: reticulocytes;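 note: inhibition of 15-lipoxygenase enzyme activity measured with linoleic acid as the substrate; in other assays of this panel Not Active means under 50% inhibition at 10 µM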
T2 sequence (P12530 whole entry): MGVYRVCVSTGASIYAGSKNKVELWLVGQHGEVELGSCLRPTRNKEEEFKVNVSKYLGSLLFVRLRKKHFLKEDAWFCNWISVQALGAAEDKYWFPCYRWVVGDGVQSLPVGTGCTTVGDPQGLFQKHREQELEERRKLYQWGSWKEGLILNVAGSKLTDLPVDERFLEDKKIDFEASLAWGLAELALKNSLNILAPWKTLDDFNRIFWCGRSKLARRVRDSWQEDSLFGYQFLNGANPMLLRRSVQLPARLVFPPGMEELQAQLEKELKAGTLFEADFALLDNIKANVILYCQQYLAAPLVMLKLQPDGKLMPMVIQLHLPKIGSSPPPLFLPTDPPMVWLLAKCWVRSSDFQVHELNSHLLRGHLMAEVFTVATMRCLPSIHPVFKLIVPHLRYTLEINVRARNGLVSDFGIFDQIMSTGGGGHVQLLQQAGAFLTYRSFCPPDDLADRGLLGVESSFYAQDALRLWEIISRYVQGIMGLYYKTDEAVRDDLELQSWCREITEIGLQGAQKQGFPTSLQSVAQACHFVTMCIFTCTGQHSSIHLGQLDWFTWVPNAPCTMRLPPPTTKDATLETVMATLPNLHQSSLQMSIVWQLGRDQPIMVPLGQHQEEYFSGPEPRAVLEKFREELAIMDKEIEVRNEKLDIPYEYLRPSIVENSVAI

[6] = DRUGMATRIX: Phorbol Ester radioligand binding (ligand: [3H] PDBu); format: cell membranes, Mus musculus, ICR, Brain, Membrane; details: Not Active = under 50% inhibition at 10 µM
[7] = biological target: cGMP-specific 3',5'-cyclic phosphodiesterase (Homo sapiens, UniProt O76074); assay: DRUGMATRIX: Phosphodiesterase PDE5 enzyme inhibition (substrate: [3H]cGMP + cGMP); format: tissue-based, Platelet; details: platelet; Not Active = under 50% inhibition at 10 µM
[8] = biological target: Platelet-activating factor receptor (Homo sapiens, UniProt P25105); assay: biochemical; format: tissue-based; details: platelet; note: in other assays of this panel Not Active means under 50% inhibition at 10 µM
Sequence of Platelet-activating factor receptor (P25105 whole entry): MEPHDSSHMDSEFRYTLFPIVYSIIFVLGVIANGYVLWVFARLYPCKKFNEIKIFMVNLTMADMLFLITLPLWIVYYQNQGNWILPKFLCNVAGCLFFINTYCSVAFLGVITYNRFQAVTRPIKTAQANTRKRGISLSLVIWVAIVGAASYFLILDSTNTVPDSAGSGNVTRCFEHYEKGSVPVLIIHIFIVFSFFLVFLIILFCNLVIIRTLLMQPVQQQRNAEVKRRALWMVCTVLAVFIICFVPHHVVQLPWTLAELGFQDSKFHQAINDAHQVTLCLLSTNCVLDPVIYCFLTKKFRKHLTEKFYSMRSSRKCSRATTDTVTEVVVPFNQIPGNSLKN

[9] = biological target: Matrix metalloproteinase-9 (Homo sapiens, UniProt P14780); format: cell-based
Sequence of Matrix metalloproteinase-9 (P14780 whole entry): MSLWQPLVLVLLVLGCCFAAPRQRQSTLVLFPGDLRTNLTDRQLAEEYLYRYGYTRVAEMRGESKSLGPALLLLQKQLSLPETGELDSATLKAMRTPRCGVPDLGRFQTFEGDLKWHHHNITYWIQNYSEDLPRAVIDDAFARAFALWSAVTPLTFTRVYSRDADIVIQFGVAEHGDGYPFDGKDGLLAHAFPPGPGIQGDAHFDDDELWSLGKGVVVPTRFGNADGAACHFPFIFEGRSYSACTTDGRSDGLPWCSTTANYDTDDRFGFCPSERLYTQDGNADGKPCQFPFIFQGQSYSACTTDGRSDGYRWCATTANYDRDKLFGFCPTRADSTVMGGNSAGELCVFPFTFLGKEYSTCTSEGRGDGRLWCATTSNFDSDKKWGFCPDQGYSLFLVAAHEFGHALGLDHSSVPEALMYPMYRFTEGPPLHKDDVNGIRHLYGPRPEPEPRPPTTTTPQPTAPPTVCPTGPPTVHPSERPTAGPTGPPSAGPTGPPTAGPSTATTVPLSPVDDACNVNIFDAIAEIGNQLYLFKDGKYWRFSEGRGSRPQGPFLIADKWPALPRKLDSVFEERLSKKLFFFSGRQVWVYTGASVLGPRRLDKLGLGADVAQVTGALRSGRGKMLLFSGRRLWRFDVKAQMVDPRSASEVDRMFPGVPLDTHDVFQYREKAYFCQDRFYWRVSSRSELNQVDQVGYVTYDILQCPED

[10] = biological target: Protein phosphatase 3 catalytic subunit alpha (Homo sapiens, UniProt Q08209); design: species or system Escherichia coli
[11] = biological target: 5-hydroxytryptamine receptor 1B (Rattus norvegicus, UniProt P28564); format: cell membranes, Wistar, Cerebral cortex, Membrane; note: in other assays of this panel Not Active means under 50% inhibition at 10 µM
Sequence of 5-hydroxytryptamine receptor 1B (P28564 whole entry): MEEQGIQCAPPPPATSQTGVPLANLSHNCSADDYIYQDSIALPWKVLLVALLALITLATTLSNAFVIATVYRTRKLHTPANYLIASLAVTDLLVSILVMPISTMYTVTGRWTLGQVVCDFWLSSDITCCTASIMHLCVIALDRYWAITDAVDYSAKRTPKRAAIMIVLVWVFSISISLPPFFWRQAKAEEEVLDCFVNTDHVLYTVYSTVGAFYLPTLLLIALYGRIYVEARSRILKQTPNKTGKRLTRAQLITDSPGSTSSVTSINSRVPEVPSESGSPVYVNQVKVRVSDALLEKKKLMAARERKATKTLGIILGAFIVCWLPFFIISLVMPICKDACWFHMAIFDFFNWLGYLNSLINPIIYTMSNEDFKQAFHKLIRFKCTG

Cytochrome P450 2A6 = biological target: T3, Cytochrome P450 2A6 (Homo sapiens, UniProt P11509); details: bti-tn-5b1-4; note: in other assays of this panel Not Active means under 50% inhibition at 10 µM
T3 sequence (P11509 whole entry): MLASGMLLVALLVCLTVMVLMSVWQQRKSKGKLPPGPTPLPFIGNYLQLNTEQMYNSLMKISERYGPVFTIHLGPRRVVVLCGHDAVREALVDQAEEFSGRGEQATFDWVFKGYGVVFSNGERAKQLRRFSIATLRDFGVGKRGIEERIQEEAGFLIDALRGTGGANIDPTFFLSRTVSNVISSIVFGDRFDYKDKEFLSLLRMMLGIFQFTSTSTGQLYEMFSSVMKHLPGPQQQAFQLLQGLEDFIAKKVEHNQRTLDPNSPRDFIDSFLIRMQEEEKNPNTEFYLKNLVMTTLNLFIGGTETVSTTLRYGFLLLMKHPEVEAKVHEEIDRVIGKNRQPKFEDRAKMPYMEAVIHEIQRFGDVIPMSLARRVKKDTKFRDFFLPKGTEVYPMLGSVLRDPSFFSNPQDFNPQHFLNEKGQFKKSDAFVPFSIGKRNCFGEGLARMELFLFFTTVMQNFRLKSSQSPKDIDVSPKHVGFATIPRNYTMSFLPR

Estrogen receptor = biological target: T4, Estrogen receptor (Homo sapiens, UniProt P03372); details: sf9; note: in other assays of this panel Not Active means under 50% inhibition at 10 µM
T4 sequence (P03372 whole entry): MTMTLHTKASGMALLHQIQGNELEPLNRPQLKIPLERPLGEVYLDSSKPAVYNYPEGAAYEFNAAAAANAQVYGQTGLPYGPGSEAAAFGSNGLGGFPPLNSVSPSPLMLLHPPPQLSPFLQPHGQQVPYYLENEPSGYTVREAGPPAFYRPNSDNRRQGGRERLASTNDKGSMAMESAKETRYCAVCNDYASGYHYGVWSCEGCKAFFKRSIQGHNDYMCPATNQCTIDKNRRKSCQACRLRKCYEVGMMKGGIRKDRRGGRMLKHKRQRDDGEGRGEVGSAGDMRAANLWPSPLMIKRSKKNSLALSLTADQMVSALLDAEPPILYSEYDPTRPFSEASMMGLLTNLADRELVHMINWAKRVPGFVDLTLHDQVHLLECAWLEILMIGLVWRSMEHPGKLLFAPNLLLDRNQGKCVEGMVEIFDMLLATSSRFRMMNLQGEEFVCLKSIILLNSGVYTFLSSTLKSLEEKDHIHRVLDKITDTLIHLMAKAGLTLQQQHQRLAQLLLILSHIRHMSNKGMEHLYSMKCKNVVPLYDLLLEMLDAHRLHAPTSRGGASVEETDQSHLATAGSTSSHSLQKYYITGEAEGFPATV

Sequence of Sigma non-opioid intracellular receptor 1 (Q99720 whole entry): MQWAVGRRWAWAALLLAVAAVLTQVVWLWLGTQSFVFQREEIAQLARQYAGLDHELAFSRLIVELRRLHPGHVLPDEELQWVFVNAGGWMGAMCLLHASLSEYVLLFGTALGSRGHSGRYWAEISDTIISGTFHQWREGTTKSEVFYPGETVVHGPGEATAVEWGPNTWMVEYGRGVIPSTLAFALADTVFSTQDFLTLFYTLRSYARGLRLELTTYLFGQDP

O=C1CCc2cc(OCCCCc3nnnn3C3CCCCC3)ccc2N1 [CILOSTAZOL]
Not Active: IC50 [1] | IC50 [2] | Ki [2] | IC50 (Substance-P receptor) | IC50 [3] | Ki [3] | IC50 [4] | Ki [4] | IC50 (Leukotriene C4 synthase) | IC50 [5] | IC50 [6] | Ki [6] | IC50 [7] | IC50 [8] | IC50 [9] | IC50 [10] | IC50 [11] | IC50 (Cytochrome P450 2A6) | Ki (Cytochrome P450 2A6) | IC50 (Estrogen receptor)
